# Where two headings read alike, the source gives them in different places.
# How the values were obtained:
# [1] = target: T1, recombinant α1β2γ2 GABAA receptors (Homo sapiens, UniProt P14867+P47870); assay: Patch clamp electrophysiology, QPatch, LTK cells; format: cell-based; conditions: 10 μM test article, GABA EC20 = 2 μM, read-out: GABA (α1β2γ2) Qpatch in Ltk, % efficacy at 10 μM
# T1 construct: expressed in transfected cells
# [2] = target: T2, recombinant α4β3δ GABAA receptors (Homo sapiens, UniProt P28472+P48169); assay: Patch clamp electrophysiology, manual patch, CHO cells; format: cell-based; conditions: 10 μM test article, GABA EC20 = 2 μM, read-out: GABA (α4β3δ) Manual patch in CHO, % efficacy at 10 μM
# T2 construct: expressed in transfected cells; host or cells: CHO cells (transient transfection, Lipofectamine)
# [3] = target: [35S]-TBPS binding, rat brain cortical membranes (GABA receptor complex); assay: [35S]-TBPS binding (steroid inhibition of TBPS binding); conditions: in the presence of 5 μM GABA, read-out: 35S-TBPS Radioligand Displacement
# Procedure: [35S]-t-Butylbicyclophosphorothionate (TBPS) binding assays using rat brain cortical membranes in the presence of 5 μM GABA has been described (Gee et al, J. Pharmacol. Exp. Ther. 1987, 241, 346-353; Hawkinson et al, Mol. Pharmacol. 1994, 46, 977-985; Lewin, A. H et al., Mol. Pharmacol. 1989, 35, 189-194).
# Briefly, cortices are rapidly removed following decapitation of carbon dioxide-anesthetized Sprague-Dawley rats (200-250 g). The cortices are homogenized in 10 volumes of ice-cold 0.32 M sucrose using a glass/teflon homogenizer and centrifuged at 1500×g for 10 min at 4° C. The resultant supernatants are centrifuged at 10,000×g for 20 min at 4° C. to obtain the P2 pellets. The P2 pellets are resuspended in 200 mM NaCl/50 mM Na-K phosphate pH 7.4 buffer and centrifuged at 10,000×g for 10 min at 4° C. This washing procedure is repeated twice and the pellets are resuspended in 10 volumes of buffer. Aliquots (100 μL) of the membrane suspensions are incubated with 3 nM [^35S]-TBPS and 5 μL aliquots of test drug dissolved in dimethyl sulfoxide (DMSO) (final 0.5%) in the presence of 5 μM GABA. The incubation is brought to a final volume of 1.0 mL with buffer. Nonspecific binding is determined in the presence of 2 μM unlabeled TBPS and ranged from 15 to 25%. Following a 90 min incubation at room temp, the assays are terminated by filtration through glass fiber filters (Schleicher and Schuell No. 32) using a cell harvester (Brandel) and rinsed three times with ice-cold buffer. Filter bound radioactivity is measured by liquid scintillation spectrometry. Non-linear curve fitting of the overall data for each drug averaged for each concentration is done using Prism (GraphPad). […] The concentration of test compound producing 50% inhibition (IC50) of specific binding and the maximal extent of inhibition (Imax) are determined for the individual experiments with the same model used for the overall data and then the means±SEM.s of the individual experiments are calculated.
# Various compounds are or can be screened to determine their potential as modulators of [^35S]-TBPS binding in vitro. These assays are or can be performed in accordance with the above discussed procedures.
# [4] = system: PTZ-treated male CD-1 mice; assay: Acute PTZ (pentylenetetrazol-induced seizure) method in mice; format: in vivo; conditions: Mus musculus, latency to tonic seizures, read-out: Anticonvulsive Effect Dose (minimal effective anticonvulsant dose)
# Procedure: The anticonvulsant effect of test compounds were assessed in the pentylenetetazol-induced seizure assay in mice similar to methods described in Giardina & Gasior (2009) Curr Protoc Pharmacol., Chapter 5. Male CD-1 mice were housed in groups of five under controlled conditions (temperature of 22±2° C. and 12:12 light-dark cycle, lights on at 8:00 am) and water and food were available ad libitum. The mice were housed for 1 week prior to behavioral testing, at which time they weighed 25-35 g. Pentylenetetrazol (PTZ, Sigma) was dissolved in sterile 0.9% saline at a concentration of 12 mg/mL concentration for subcutaneous administration. Test compounds were formulated and administered via oral gavage or intraperitoneal injection at a predetermined time-point (typically 30 or 60 minutes) prior to PTZ injection. All solutions were made fresh and were given in a volume of 10 ml/kg body weight.
# Mice were acclimated to the test room for at least 30 min before compound administration. Mice were randomized into at least four test groups (vehicle and at least three doses of the test compound) with 10 mice per group. […] Following the drug pretreatment time the mice were injected s.c. with PTZ (120 mg/kg). Immediately following the PTZ injection, mice were individually placed into observation chambers (25×15×15 cm) and a three-channel timer was started. Each mouse was continuously observed for 30 min and the following behaviors were recorded by observers blinded to the treatments: 1) latency to clonic convulsions that persist for 3 sec and followed by an absence of righting reflex 2) latency to tonic convulsions, characterized by the rigid extension of all four limbs that exceeded a 90 degree angle with the body 3) latency to death 4) number of clonic and tonic convulsions. Data are presented as mean±S.E.M and one-way analysis of variance with Dunnett's or Bonferroni's post-hoc test was used to detect significant differences in latency and number between the vehicle and dose group. p values<0.05 were regarded as statistically significant.
# T1 sequence (P14867 28-456): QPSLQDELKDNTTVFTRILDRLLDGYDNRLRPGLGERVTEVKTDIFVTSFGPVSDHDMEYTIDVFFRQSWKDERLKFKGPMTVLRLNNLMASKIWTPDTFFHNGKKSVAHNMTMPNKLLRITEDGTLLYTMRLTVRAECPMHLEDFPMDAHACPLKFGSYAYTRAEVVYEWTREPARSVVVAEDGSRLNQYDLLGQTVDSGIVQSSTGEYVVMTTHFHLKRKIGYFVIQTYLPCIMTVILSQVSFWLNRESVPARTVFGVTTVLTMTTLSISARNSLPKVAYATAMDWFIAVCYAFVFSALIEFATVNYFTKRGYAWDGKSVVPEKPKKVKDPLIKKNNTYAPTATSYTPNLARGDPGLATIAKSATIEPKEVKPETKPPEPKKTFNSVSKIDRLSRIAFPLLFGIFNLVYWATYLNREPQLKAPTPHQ
# T1 sequence (P47870 25-512 limits assumed): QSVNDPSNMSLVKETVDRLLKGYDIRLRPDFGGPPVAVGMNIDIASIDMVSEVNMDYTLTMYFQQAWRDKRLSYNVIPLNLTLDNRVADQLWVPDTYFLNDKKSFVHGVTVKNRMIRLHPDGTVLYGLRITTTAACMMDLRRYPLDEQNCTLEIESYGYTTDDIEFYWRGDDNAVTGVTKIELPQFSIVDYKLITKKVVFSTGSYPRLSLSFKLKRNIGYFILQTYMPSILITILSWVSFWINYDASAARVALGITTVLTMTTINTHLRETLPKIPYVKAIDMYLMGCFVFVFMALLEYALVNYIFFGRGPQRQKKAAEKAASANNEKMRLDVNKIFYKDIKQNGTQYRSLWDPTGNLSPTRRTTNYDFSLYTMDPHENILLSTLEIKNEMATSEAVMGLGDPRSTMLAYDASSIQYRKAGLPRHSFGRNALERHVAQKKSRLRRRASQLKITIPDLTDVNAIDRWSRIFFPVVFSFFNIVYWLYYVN
# T1 sequence (P18507 40-475 partner): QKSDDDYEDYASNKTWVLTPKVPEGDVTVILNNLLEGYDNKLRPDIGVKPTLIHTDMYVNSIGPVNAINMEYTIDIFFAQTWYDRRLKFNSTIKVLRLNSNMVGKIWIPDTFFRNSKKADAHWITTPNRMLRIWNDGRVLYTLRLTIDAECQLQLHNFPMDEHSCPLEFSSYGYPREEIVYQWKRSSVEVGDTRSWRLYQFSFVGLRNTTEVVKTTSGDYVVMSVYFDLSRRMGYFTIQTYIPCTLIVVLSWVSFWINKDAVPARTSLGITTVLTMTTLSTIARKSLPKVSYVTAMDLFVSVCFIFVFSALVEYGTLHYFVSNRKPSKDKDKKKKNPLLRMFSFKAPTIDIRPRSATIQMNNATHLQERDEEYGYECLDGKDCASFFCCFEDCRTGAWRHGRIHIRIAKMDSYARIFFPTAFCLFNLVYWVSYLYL
# T2 sequence (P48169 36-554): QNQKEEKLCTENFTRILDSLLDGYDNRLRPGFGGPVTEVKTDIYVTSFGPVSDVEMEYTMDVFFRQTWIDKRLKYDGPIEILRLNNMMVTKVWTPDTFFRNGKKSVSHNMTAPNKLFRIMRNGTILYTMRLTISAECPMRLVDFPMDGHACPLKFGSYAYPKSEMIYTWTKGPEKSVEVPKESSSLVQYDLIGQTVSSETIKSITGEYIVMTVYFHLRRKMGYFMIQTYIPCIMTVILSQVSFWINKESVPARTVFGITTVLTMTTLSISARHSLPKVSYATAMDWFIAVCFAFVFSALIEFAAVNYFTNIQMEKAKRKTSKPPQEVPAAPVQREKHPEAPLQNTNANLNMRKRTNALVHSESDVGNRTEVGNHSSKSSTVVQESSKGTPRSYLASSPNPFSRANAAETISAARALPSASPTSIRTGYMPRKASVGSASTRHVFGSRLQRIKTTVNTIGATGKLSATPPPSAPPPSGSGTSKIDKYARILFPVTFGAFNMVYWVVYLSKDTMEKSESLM
# T2 sequence (P28472 26-473): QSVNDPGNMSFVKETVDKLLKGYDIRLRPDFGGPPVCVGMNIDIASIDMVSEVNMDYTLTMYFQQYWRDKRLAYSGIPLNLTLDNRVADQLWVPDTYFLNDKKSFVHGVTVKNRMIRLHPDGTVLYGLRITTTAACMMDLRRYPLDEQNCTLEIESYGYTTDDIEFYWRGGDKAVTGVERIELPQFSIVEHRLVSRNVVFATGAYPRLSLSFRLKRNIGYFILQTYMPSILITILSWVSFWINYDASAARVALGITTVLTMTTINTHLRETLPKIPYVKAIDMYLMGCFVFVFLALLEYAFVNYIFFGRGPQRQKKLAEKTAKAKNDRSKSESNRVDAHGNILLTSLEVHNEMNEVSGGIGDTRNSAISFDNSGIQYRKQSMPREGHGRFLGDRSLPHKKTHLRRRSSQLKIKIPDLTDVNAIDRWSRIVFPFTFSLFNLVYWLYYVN
# T2 sequence (O14764 17-452 partner limits assumed): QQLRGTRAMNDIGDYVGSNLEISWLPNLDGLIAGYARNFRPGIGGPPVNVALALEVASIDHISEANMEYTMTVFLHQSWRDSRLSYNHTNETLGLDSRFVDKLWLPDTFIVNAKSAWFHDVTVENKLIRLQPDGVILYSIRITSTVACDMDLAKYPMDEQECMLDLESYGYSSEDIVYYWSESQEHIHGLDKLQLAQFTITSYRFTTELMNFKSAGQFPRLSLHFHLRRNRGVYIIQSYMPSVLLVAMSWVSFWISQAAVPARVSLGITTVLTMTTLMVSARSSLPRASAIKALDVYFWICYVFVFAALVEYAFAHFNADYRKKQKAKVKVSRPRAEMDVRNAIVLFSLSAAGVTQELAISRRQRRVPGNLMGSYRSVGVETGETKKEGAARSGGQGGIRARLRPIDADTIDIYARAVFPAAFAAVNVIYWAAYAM
SMILES,Emax at 10 µM [1] [%],Emax at 10 µM [2] [%],IC50 [3] [nM],minimal effective dose ([4]; PO (oral administration)) [mg/kg],minimal effective dose ([4]; IP (intraperitoneal injection)) [mg/kg]
Cc1nnnn1CC(=O)[C@H]1CC[C@H]2[C@@H]3C[C@@H](F)[C@H]4C[C@](C)(O)CC[C@@H]4[C@H]3CC[C@]12C [SV-6],100 to 500,100 to 500,,,
C[C@@]1(O)CC[C@@H]2[C@H]3CC[C@]4(C)[C@@H](C(=O)Cn5ccnn5)CC[C@H]4[C@@H]3C[C@@H](F)[C@H]2C1 [SV-1],100 to 500,100 to 500,100 to 500,1 to 3,
C[C@@]1(O)CC[C@H]2[C@@H](CC[C@@H]3[C@@H]2CC[C@]2(C)[C@@H](C(=O)Cn4ccnn4)CC[C@@H]32)C1 [SB-6],100 to 500,100 to 500,50 to 100,,1 to 3
C[C@@]1(O)CC[C@H]2[C@H](CC[C@@H]3[C@@H]2CC[C@]2(C)[C@@H](C(=O)Cn4cnnn4)CC[C@@H]32)C1 [SA-2],> 500,100 to 500,50 to 100,1 to 3,
Cc1cnnn1CC(=O)[C@H]1CC[C@H]2[C@@H]3CC[C@@H]4C[C@](C)(O)CC[C@@H]4[C@H]3CC[C@]12C [SA-4],> 500,> 500,,,
C[C@@]1(O)CC[C@H]2[C@@H](CC[C@@H]3[C@@H]2CC[C@]2(C)[C@@H](C(=O)Cn4cnnn4)CC[C@@H]32)C1 [SB-2],100 to 500,100 to 500,100 to 500,,> 3
C[C@@H]1C[C@H]2[C@@H](CC[C@@H]3[C@@H]2CC[C@]2(C)[C@@H](C(=O)Cn4nccn4)CC[C@@H]32)C[C@]1(C)O [SN-2],100 to 500,100 to 500,1 to 50,,
C[C@H]1C[C@H]2[C@@H](CC[C@@H]3[C@@H]2CC[C@]2(C)[C@@H](C(=O)Cn4nccn4)CC[C@@H]32)C[C@]1(C)O [SZ-2],100 to 500,100 to 500,50 to 100,,
C[C@]12CC[C@H]3[C@@H](CC[C@@H]4C[C@@](O)(C(F)F)CC[C@@H]43)[C@@H]1CC[C@@H]2C(=O)Cn1ccnn1 [SG-5],> 500,> 500,100 to 500,,
C[C@@]1(O)CC[C@@H]2[C@H]3CC[C@]4(C)[C@@H](C(=O)Cn5cnnn5)CC[C@H]4[C@@H]3C[C@@H](F)[C@H]2C1 [SV-4],100 to 500,100 to 500,,1 to 3,
CCO[C@H]1C[C@H]2[C@@H](CC[C@@H]3[C@@H]2CC[C@]2(C)[C@@H](C(=O)Cn4nccn4)CC[C@@H]32)C[C@]1(C)O [SY-2],100 to 500,> 500,100 to 500,,
COC[C@@]1(O)CC[C@H]2[C@@H](CC[C@@H]3[C@@H]2CC[C@]2(C)[C@@H](C(=O)Cn4ccnn4)CC[C@@H]32)C1 [SI-2],100 to 500,> 500,100 to 500,1 to 3,
